Experimental data as given in the NIST ThermoML archive (doi:10.1016/j.fluid.2014.11.020).
± gives the expanded uncertainty stated by the source.

Assay: activity coefficient (dimensionless); of the first substance listed, at infinite dilution; xn = mol fraction of the nth substance listed
Conditions: Liquid, Chromatography, x1 = 0

Row | SMILES | activity coefficient (323.15 K) | activity coefficient (333.15 K) | activity coefficient (343.15 K)
1 | CCC[N+](=O)[O-] [1-nitropropane] + CCCOC[n+]1ccn(C)c1.F[B-](F)(F)F | 1.78 ± 0.12 | 1.78 ± 0.12 | 1.78 ± 0.12
2 | CCC[N+](=O)[O-] [1-nitropropane] + CCCOC[n+]1ccn(C)c1.N#C[N-]C#N | 1.36 ± 0.09 | 1.37 ± 0.09 | 1.39 ± 0.09
3 | CCC[N+](=O)[O-] [1-nitropropane] + CCCOC[n+]1ccn(C)c1.O=S(=O)([N-]S(=O)(=O)C(F)(F)F)C(F)(F)F | 0.74 ± 0.05 | 0.72 ± 0.05 | 0.72 ± 0.05
4 | CCC[N+](=O)[O-] [1-nitropropane] + CCCOC[n+]1ccn(Cc2ccccc2)c1.F[B-](F)(F)F | 1.16 ± 0.07 | 1.12 ± 0.07 | 1.14 ± 0.07
5 | CCC[N+](=O)[O-] [1-nitropropane] + CCCOC[n+]1ccn(Cc2ccccc2)c1.N#C[N-]C#N | 1.04 ± 0.07 | 1.06 ± 0.07 | 1.06 ± 0.07
6 | CCC[N+](=O)[O-] [1-nitropropane] + CCCOC[n+]1ccn(Cc2ccccc2)c1.O=S(=O)([N-]S(=O)(=O)C(F)(F)F)C(F)(F)F | 0.53 ± 0.04 | 0.46 ± 0.04 | 0.47 ± 0.04
7 | CCC[N+](=O)[O-] [1-nitropropane] + CN(C)c1cc[n+](COCCCOC[n+]2ccc(N(C)C)cc2)cc1.O=S(=O)([N-]S(=O)(=O)C(F)(F)F)C(F)(F)F.O=S(=O)([N-]S(=O)(=O)C(F)(F)F)C(F)(F)F | 0.57 ± 0.04 | 0.59 ± 0.04 | 0.56 ± 0.04
8 | CCC[N+](=O)[O-] [1-nitropropane] + Cn1cc[n+](COCCCOC[n+]2ccn(C)c2)c1.O=S(=O)([N-]S(=O)(=O)C(F)(F)F)C(F)(F)F.O=S(=O)([N-]S(=O)(=O)C(F)(F)F)C(F)(F)F | 0.54 ± 0.04 | 0.54 ± 0.04 | 0.53 ± 0.04
9 | CCC[N+](=O)[O-] [1-nitropropane] + N#C[N-]C#N.N#C[N-]C#N.c1ccc(Cn2cc[n+](COCCCOC[n+]3ccn(Cc4ccccc4)c3)c2)cc1 | 1.76 ± 0.12 | 1.73 ± 0.12 | 1.75 ± 0.12
10 | CC(C)CC(C)(C)C [2,2,4-trimethylpentane] + CCCCCCCCn1cc[n+](COCCCOC[n+]2ccn(CCCCCCCC)c2C)c1C.N#C[N-]C#N.N#C[N-]C#N | 11.4 ± 0.78 | 10.5 ± 0.72 | 9.74 ± 0.66
11 | CC(C)CC(C)(C)C [2,2,4-trimethylpentane] + CN(C)c1cc[n+](COCCCOC[n+]2ccc(N(C)C)cc2)cc1.O=S(=O)([N-]S(=O)(=O)C(F)(F)F)C(F)(F)F.O=S(=O)([N-]S(=O)(=O)C(F)(F)F)C(F)(F)F | 31.7 ± 2.2 | 25.2 ± 1.7 | 25.4 ± 1.7
12 | CC(C)CO [2-methyl-1-propanol] + CCCCCCCCn1cc[n+](COCCC)c1C.O=S(=O)([N-]S(=O)(=O)C(F)(F)F)C(F)(F)F | 1.21 ± 0.08 | 1.09 ± 0.07 | 1.03 ± 0.06
13 | CC(C)CO [2-methyl-1-propanol] + CCCCCCCCn1cc[n+](COCCCOC[n+]2ccn(CCCCCCCC)c2C)c1C.N#C[N-]C#N.N#C[N-]C#N | 0.36 ± 0.03 | 0.36 ± 0.03 | 0.35 ± 0.03
14 | CC(C)CO [2-methyl-1-propanol] + CCCCCCCCn1cc[n+](COCCCOC[n+]2ccn(CCCCCCCC)c2C)c1C.O=S(=O)([N-]S(=O)(=O)C(F)(F)F)C(F)(F)F.O=S(=O)([N-]S(=O)(=O)C(F)(F)F)C(F)(F)F | 0.8 ± 0.05 | 0.72 ± 0.05 | 0.67 ± 0.05
15 | CC(C)CO [2-methyl-1-propanol] + CCCOC[n+]1ccc(N(C)C)cc1.O=S(=O)([N-]S(=O)(=O)C(F)(F)F)C(F)(F)F | 2.03 ± 0.14 | 1.92 ± 0.13 | 1.73 ± 0.12
16 | CC(C)CO [2-methyl-1-propanol] + CCCOC[n+]1ccn(C)c1.F[B-](F)(F)F | 4.35 ± 0.3 | 3.95 ± 0.27 | 3.56 ± 0.24
17 | CC(C)CO [2-methyl-1-propanol] + CCCOC[n+]1ccn(C)c1.N#C[N-]C#N | 1.29 ± 0.08 | 1.25 ± 0.08 | 1.21 ± 0.08
18 | CC(C)CO [2-methyl-1-propanol] + CCCOC[n+]1ccn(C)c1.O=S(=O)([N-]S(=O)(=O)C(F)(F)F)C(F)(F)F | 2.18 ± 0.15 | 1.93 ± 0.13 | 1.76 ± 0.12
19 | CC(C)CO [2-methyl-1-propanol] + CCCOC[n+]1ccn(Cc2ccccc2)c1.F[B-](F)(F)F | 2.86 ± 0.19 | 2.53 ± 0.17 | 2.34 ± 0.16
20 | CC(C)CO [2-methyl-1-propanol] + CCCOC[n+]1ccn(Cc2ccccc2)c1.N#C[N-]C#N | 0.9 ± 0.06 | 0.86 ± 0.06 | –
21 | CC(C)CO [2-methyl-1-propanol] + CN(C)c1cc[n+](COCCCOC[n+]2ccc(N(C)C)cc2)cc1.O=S(=O)([N-]S(=O)(=O)C(F)(F)F)C(F)(F)F.O=S(=O)([N-]S(=O)(=O)C(F)(F)F)C(F)(F)F | 1.85 ± 0.12 | 1.66 ± 0.11 | 1.5 ± 0.1
